Experimental data taken from US20240209028A1, “CNP COMPOUNDS” (priority 2022, published 2024).
Starred links: 1 amine or outer side, 2 acyl side, 3 side chain; linkers in the order of their positions; H or OH if unused. Positions of bridges follow the written chain, without caps; N, C: chain ends. Residues, ends and D or L forms follow the SMILES beside them. *: point of attachment. C18 diacid = O=C(O)CCCCCCCCCCCCCCCCC(=O)*; γGlu = O=C(O)[C@H](CCC(=O)[*:2])N[*:1]

Columns and labels:
[1] = Accelerated chemical stability (RP-UPLC recovery and LCMS degradation pattern, 37° C.); format: physicochemical; design: Isomers TZ / Isomers 2 W / Loss of 18 amu TZ / Loss of 18 amu 2 W / Fragments TZ / Fragments 2 W / Fragments 1 W / Fragments 3 W / Fragments 4 W / Fragments 5 W / Fragments 6 W / Others 1 W / Others 3 W / Others 4 W / Others 5 W / Others 6 W / Isomers 1 W / Isomers 3 W / Isomers 4 W / Isomers 5 W / Isomers 6 W / Loss of 18 amu 1 W / Loss of 18 amu 3 W / Loss of 18 amu 4 W / Loss of 18 amu 5 W / Loss of 18 amu 6 W: unit not given here; conditions: LCMS, 5 mM sodium acetate, 250 mM glycerol, pH 4
Procedure: In order to determine the chemical stability of CNP compounds in formulation, samples of CNP compounds in buffer were exposed to accelerated chemical degradation by heating. The stability of a given peptide was assessed by measuring recovery of intact peptide by quantification by RP-UPLC. To assess the chemical degradation pattern samples were also analysed by LC-MS.
Sample preparation: Samples for the 2 week study were prepared according to the principles described in Example 5.
Samples for the 6 week study were prepared by dissolving lyophilized peptide in buffer (8 mM phosphate, 250 mM glycerol, pH 7.4) to a nominal peptide concentration of 5000 nmol/ml followed by pH adjustment with 0.1 N HCl to pH 6.5.
Incubation: For the 2 week study a time-zero (TZ) sample was pulled and stored at −18° C. and the remaining volume was incubated at 37° C. Samples were pulled and stored at −18° C. after 2 weeks of incubation. Frozen samples were thawed, diluted to about 200 nmol/mL and the extent of chemical degradation was determined using LCMS as described.
For the 6 week study a time-zero (TZ) sample was pulled and stored at −18° C. and the remaining volume was incubated at 37° C. Samples were pulled on a weekly basis and stored at −18° C. until the last sampling time point at 6 weeks. Frozen samples were thawed, diluted to about 200 nmol/mL and the extent of chemical degradation was determined using RP-UPLC and LCMS as described.
Analysis of peptide recovery by RP-UPLC: The RP-UPLC method was performed on a Waters ACQUITY H-CLASS UPLC system fitted with a PDA detector. Separation was carried out on an ACQUITY UPLC BEH C8 Column (130 Å, 1.7 μm, 2.1 mm×150 mm) operating at a column temperature of 50° C. with eluent A (19.59 mM NH4H2PO4 41.71 mM (NH4)2HPO4, pH 6.5 and MeCN 9:1 v:v) and eluent B (80% MeCN in water). UV-detection was carried out at 214 nm. The analysis was performed by injection of 3 μL of sample onto the column which was eluted with a 1-step linear gradient of eluents A and B from 27 to 30% B over 20 minutes followed by a wash at 95% B over 2 minutes followed by a re-equilibration phase for 7 minutes at a constant flow rate of 0.3 mL/min. This yielded an analysis time of 30 minutes per sample. The area of the peak corresponding to intact CNP compound was given on a percentage scale relative to the total peptide peak area.
Analysis of chemical degradation patterns by LCMS: Samples were analysed on a […] UPLC from Thermo Scientific, using a Waters Acquity C18 reversed-phase column, 300 Å, […] particles 1 mm×150 mm. The compounds were separated by a linear gradient of solvent B from 5% to 55% over 48 minutes, using solvent A: water, 0.1% formic acid with 0.02% TFA and solvent B: acetonitrile, 0.1% formic acid with 0.02% TFA. Mass spectra were acquired by a Q Exactive Plus hybrid Quadrupole-Orbitrap mass spectrometer, BioPharma option (Thermo Scientific) interfaced with H-ESI II ion source. Data acquisitions were performed with a m/z 500 to 2000 scan range and a resolution of 30000.
The data list was aggregated into a summed table of the compounds. The table headers were defined as follows: […]
Results: The results from LCMS analysis of a 2 week accelerated degradation study on several CNP compounds of the present invention are summarised in Table 12. The results from RP-UPLC and LCMS analysis of a 6 week accelerated degradation study on CNP compound 9482 (Chem. 137) is summarised in Table 13 and Table 14 respectively.

[2] = PK after i.v. and s.c. administration to Göttingen minipig; conditions: female, Göttingen, minipig, in vivo
Procedure: The purpose of this study was to investigate pharmacokinetic and pharmacodynamic properties after intravenous (i.v.) and subcutaneous (s.c.) administration to Gottingen Minipig and domestic LYD pig, and to estimate bioavailability after s.c. dosing. Quantitative plasma analysis of CNP and cGMP levels were performed as described in
Animals and dosing: The pharmacokinetic and pharmacodynamic studies in Gottingen Minipig or domestic LYD pig were conducted at CRO Minerva Imaging or Novo Nordisk A/S, respectively. CNP compounds were dosed to normal female 1) Gottingen minipigs 6-12 months of age with an average weight of 22 kg or 2) domestic LYD pigs 4-5 months of age with and average weight of 80 kg. At least one week prior to dosing, permanent central venous catheters were implanted for blood sampling and intravenous (i.v.) dosing. For subcutaneous (s.c.) dosing, the pigs were ultrasound scanned and the optimal injection area laterally on the neck marked by a permanent tattoo. An insulin pen (NovoPen Echo or NovoPen 4) and insulin needle (NovoFine 32G/4 mm or NovoTwist 32G/5 mm) were used for accurate deposition of the CNP formulations in the subcutaneous fat tissue with the needle perpendicular to the skin.
CNP compounds were formulated according to the principles in General Methods of Preparation—Method G and were either A) 8 mM sodium phosphate, 250 mM glycerol, pH 6.5, B) 5 mM sodium acetate, 250 mM glycerol, pH 4.0, C) 5 mM sodium acetate, 240 mM propylene glycol, pH=4.0, D) 8 mM sodium phosphate, 250 mM glycerol, pH 7.5 or E) 20 mM sodium phosphate, 223 mM propylene glycol, pH 6.0.
Intravenously, the CNP compounds were dosed at 30-60 nmol/kg to Minipig and 15-43 nmol/kg to domestic pig using formulations A-E. Subcutaneously, the CNP compounds were dosed at 55-62 nmol/kg to Minipig and 20-30 nmol/kg to domestic pig using formulations A-D.
Sampling: Blood samples of approximately 1 mL were collected pre dose and up to 14 days post dose into EDTA-coated tubes (8 mM) for cGMP and CNP compound analysis by LC-MS. In few instances, cGMP was only analysed up to 48 hours post dose after intravenous dosing in domestic LYD pig. The blood samples were kept on wet ice for maximum 30 minutes until centrifugation for 10 minutes at 4° C. and minimum 1500G, and the plasma samples were stored at −20° C. until analysis.
Plasma concentration-time profiles were analyzed by non-compartmental PK analysis using Phoenix WinNonlin 8.1, Pharsight Inc., Mountain View, CA, USA. Calculation of the area under the plasma concentration-time curve (AUC) was based on the “linear up log down” method, and uniform weighting was used for estimation of the terminal rate constant (λz). S.c. bioavailability (F) was calculated as the dose-normalized AUC (AUC/dose) after s.c. administration divided by the AUC/dose after i.v. administration. […]

neprilysin (NEP) = neprilysin (NEP) (Homo sapiens, UniProt P08473); assay: In vitro neprilysin stability; conditions: recombinant human neprilysin (rhNEP), pH 7.4
Sequence of neprilysin (NEP) (P08473 whole entry): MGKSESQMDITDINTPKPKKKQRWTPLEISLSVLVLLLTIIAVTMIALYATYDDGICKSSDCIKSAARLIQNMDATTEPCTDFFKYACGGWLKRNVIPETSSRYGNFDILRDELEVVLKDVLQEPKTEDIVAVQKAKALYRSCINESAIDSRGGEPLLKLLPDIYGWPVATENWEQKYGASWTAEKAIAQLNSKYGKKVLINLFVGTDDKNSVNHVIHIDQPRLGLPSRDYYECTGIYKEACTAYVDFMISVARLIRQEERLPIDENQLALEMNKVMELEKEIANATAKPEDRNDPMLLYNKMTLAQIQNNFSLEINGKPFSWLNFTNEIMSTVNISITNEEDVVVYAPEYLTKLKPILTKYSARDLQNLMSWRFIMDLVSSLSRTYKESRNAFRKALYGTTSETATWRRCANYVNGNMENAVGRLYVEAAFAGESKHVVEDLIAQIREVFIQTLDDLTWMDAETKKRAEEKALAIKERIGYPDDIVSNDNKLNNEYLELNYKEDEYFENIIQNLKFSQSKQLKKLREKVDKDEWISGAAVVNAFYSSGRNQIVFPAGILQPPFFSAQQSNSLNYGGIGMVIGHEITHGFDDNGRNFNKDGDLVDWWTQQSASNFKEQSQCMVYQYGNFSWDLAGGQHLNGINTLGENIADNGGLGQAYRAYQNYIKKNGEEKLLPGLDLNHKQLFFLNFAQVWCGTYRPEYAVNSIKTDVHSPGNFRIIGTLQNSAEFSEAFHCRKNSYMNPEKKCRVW
Procedure: Therefore, an in vitro neprilysin stability assay was set up to test the neprilysin mediated degradation of selected CNP compounds.
Procedure: In short, the assay buffer consisted of PBS-buffer (pH 7.4, ThermoFisher Scientific) with a final concentration of 0.005% v/v tween 20 (Sigma-Aldrich). Recombinant human neprilysin (rhNEP; R&D Systems) and the CNP compounds were dissolved in assay buffer. Native CNP22 (0065, Chem. 1) was included as positive control on each day of incubation. Initially, the CNP compound (the final concentration was 1000 nM) was pre-incubated in assay buffer for 10 min at 37° C. The assay was started by adding either rhNEP (final concentration was 2 μg protein per mL) or assay buffer (adsorption experiment) and the incubation was conducted at 37° C. […] The mixture was centrifuged at 13000 rpm at 4° C. for 20 minutes. After centrifugation, one volume of supernatant was mixed with one volume of Milli-Q water.
Analysis by LCMS: The mixture was analysed by LCMS using an Acquity UPLC Peptide CSH C18 analytical column from Waters (130 Å, 1.7 μm, 1*50 mm) operated at 60° C. A gradient elution was conducted with a Nexera UHPLC system (Shimadzu) using mobile phase A (consisting of Milli-Q water with 0.1% formic acid) and mobile phase B (consisting of acetonitrile with 0.1% formic acid). The flow was 0.3 ml/min. A zenoTOF 7600 mass spectrometer (Sciex) was used as detector and operated in positive electrospray ionisation mode. Data was recorded in full scan mode (m/z 300-1700).
Calibration curves were prepared in assay buffer and treated as study samples. These samples were used for calculating the concentration of the relevant CNP compound in the in vitro samples. Quality control samples were included. For at least 75% of the standards and QCs, the deviation between nominal and calculated concentration was below 20%.
All incubations were conducted in duplicate. Data was reported as percent remaining at 90 min (based on calculated concentrations) compared to the average concentration in the 0.5-minute time point samples.

In the case of CC[C@H](C)[C@@H]1NC(=O)[C@H](CCCNC(=N)N)NC(=O)[C@H](CCC(=O)O)NC(=O)[C@H](CC(C)C)NC(=O)[C@@H]2CCCN2C(=O)[C@H](CC(C)C)NC(=O)CNC(=O)[C@H](Cc2ccccc2)NC(=O)[C@@H](NC(=O)CNC(=O)[C@H](CO)NC(=O)[C@H](CO)NC(=O)[C@H](CC(C)C)NC(=O)CNC(=O)[C@H](CCCCN)NC(=O)[C@H](CCCCN)NC(=O)[C@H](CCC(N)=O)NC(=O)[C@H](C)NC(=O)CNC(=O)[C@H](CCCCN)NC(=O)[C@H](Cc2ccc(O)cc2)NC(=O)[C@H](CCCCN)NC(=O)[C@H](CCCNC(=N)N)NC(=O)[C@H](C)NC(=O)[C@H](CCC(N)=O)NC(=O)[C@@H]2CCCN2C(=O)[C@H](Cc2c[nH]cn2)NC(=O)[C@H](CCC(=O)O)NC(=O)[C@H](CCC(N)=O)NC(=O)CC[C@H](NC(=O)CC[C@H](NC(=O)CC[C@H](NC(=O)CC[C@H](NC(=O)CCCCCCCCCCCCCCCCC(=O)O)C(=O)O)C(=O)O)C(=O)O)C(=O)O)CSSC[C@@H](C(=O)O)NC(=O)CNC(=O)[C@H](CC(C)C)NC(=O)CNC(=O)[C@H](CO)NC(=O)[C@H](CC(C)C)NC(=O)[C@H](CO)NC(=O)CNC1=O [Compound 9483] ({C18 diacid-γGlu-γGlu-γGlu-γGlu}-QEHPQARKYKGAQKKGLSSGCFGLPLERIGSLSGLGC-OH; disulfide 21-37), the “Fragments 2 W” value ([1]; 2 weeks at 37° C.) is reported as 0, the “Isomers 2 W” value ([1]; 2 weeks at 37° C.) is reported as 0 and the “Loss of 18 amu 2 W” value ([1]; 2 weeks at 37° C.) is reported as 0. The Others 2 W ([1]; 2 weeks at 37° C.) was 0.6%, the “Fragments TZ” value ([1]; time zero) was 0 and the “Isomers TZ” value ([1]; time zero) was 0. For the same compound, the “Loss of 18 amu TZ” value ([1]; time zero) was 0, the Others TZ ([1]; time zero) was 0.2% and the clearance ([2]; iv) was 1.04 mL/h/kg. For the same compound, the half-life ([2]; iv) was 88 h, the bioavailability ([2]; sc) was 44% and the half-life ([2]; sc) was 75 h. It also gave a remaining at 1.5 h, 1000 nM (neprilysin (NEP)) of 106%.
